Reference: ChEMBL document CHEMBL1201862, “PubChem BioAssay data set” (2004)
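Five compound concentrations were applied to cells in 96-well plates for 48 hours; endpoints were derived by simple linear interpolation of the resulting dose-response curve. GI50 marks 50% less growth.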 The source made the active and inactive calls. Cut-off read from the data, not from the text of the source: active = GI50 up to about 1.1 µM and inactive = higher. Peptide text beside a SMILES is read from it. * marks the point of attachment. Boc = CC(C)(C)OC(=O)*

How the values were obtained:
Assay in all cases: NCI tumour cell line growth inhibition, 48 h
SR = tested on: SR
EKVX = tested on: EKVX
PC-3 = tested on: PC-3
786-0 = tested on: 786-0
HOP-62 = tested on: HOP-62
OVCAR-4 = tested on: OVCAR-4
SK-OV-3 = tested on: SK-OV-3
SN12C = tested on: SN12C
MDA-N = tested on: MDA-N
SK-MEL-2 = tested on: SK-MEL-2
NCI-H23 = tested on: NCI-H23
OVCAR-8 = tested on: OVCAR-8
OVCAR-3 = tested on: OVCAR-3
DU-145 = tested on: DU-145
MOLT-4 = tested on: MOLT-4
SF-268 = tested on: SF-268
HOP-92 = tested on: HOP-92
SF-295 = tested on: SF-295
A498 = tested on: A498
K562 = tested on: K562

Compound | GI50 (SR) | GI50 (EKVX) | GI50 (PC-3) | GI50 (786-0) | GI50 (HOP-62) | GI50 (OVCAR-4) | GI50 (SK-OV-3) | GI50 (SN12C) | GI50 (MDA-N) | GI50 (SK-MEL-2) | GI50 (NCI-H23) | GI50 (OVCAR-8) | GI50 (OVCAR-3) | GI50 (DU-145) | GI50 (MOLT-4) | GI50 (SF-268) | GI50 (HOP-92) | GI50 (SF-295) | GI50 (A498) | GI50 (K562)
CC1=CC(=O)C2=C(C)CCC3C(C)C(=O)OC3C12 (stereo not drawn) | 48 µM (inactive) | > 100 µM (inactive) | > 100 µM (inactive) | > 100 µM (inactive) | > 100 µM (inactive) | > 100 µM (inactive) | > 100 µM (inactive) | > 100 µM (inactive) | > 100 µM (inactive) | > 100 µM (inactive) | > 100 µM (inactive) | > 100 µM (inactive) | > 100 µM (inactive) | > 100 µM (inactive) | > 100 µM (inactive) | > 100 µM (inactive) | > 100 µM (inactive) | > 100 µM (inactive) | > 100 µM (inactive) | –
COC(=NC(C)C)NC(C)C | 77.3 µM (inactive) | > 100 µM (inactive) | > 100 µM (inactive) | > 100 µM (inactive) | > 100 µM (inactive) | – | > 100 µM (inactive) | > 100 µM (inactive) | > 100 µM (inactive) | > 100 µM (inactive) | > 100 µM (inactive) | > 100 µM (inactive) | – | > 100 µM (inactive) | > 100 µM (inactive) | > 100 µM (inactive) | > 100 µM (inactive) | – | > 100 µM (inactive) | > 100 µM (inactive)
Cc1c2oc3c(C)cnc(C(=O)NC4C(=O)NC(C(C)C)C(=O)N5CCCC5C(=O)N(C)CC(=O)N(C)C(C(C)C)C(=O)OC4C)c3nc-2c(C(=O)NC2C(=O)NC(C(C)C)C(=O)N3CCCC3C(=O)N(C)CC(=O)N(C)C(C(C)C)C(=O)OC2C)c(N)c1=O (stereo not drawn) | 0.575 µM (active) | 15.4 µM (inactive) | 2.67 µM (inactive) | 2.3 µM (inactive) | 3.05 µM (inactive) | 10.8 µM (inactive) | 5.6 µM (inactive) | 1.36 µM (inactive) | 0.979 µM (active) | 0.431 µM (active) | 3.24 µM (inactive) | 5.57 µM (inactive) | 10.4 µM (inactive) | 4.72 µM (inactive) | 0.138 µM (active) | 0.789 µM (active) | 2.84 µM (inactive) | 5.45 µM (inactive) | 6.18 µM (inactive) | 0.231 µM (active)
COc1cc(/C=C2\C(=O)N(c3cccc(NC(C)=O)c3)C(c3ccccc3)S2(=O)=O)cc(OC)c1OC (stereo not drawn) | 24.9 µM (inactive) | 74.1 µM (inactive) | 42.6 µM (inactive) | 88.5 µM (inactive) | > 100 µM (inactive) | 70.5 µM (inactive) | > 100 µM (inactive) | 67.5 µM (inactive) | 40.4 µM (inactive) | > 100 µM (inactive) | 79.4 µM (inactive) | 48.2 µM (inactive) | 56 µM (inactive) | > 100 µM (inactive) | 19.8 µM (inactive) | – | > 100 µM (inactive) | 50.9 µM (inactive) | > 100 µM (inactive) | 31.3 µM (inactive)
Nc1cc(CO)cc(Nc2c3ccccc3nc3occc23)c1 | 3.91 µM (inactive) | 67.5 µM (inactive) | 64 µM (inactive) | 29.9 µM (inactive) | 37.2 µM (inactive) | 17.1 µM (inactive) | 36.5 µM (inactive) | 39 µM (inactive) | 25.9 µM (inactive) | 23.6 µM (inactive) | 28.9 µM (inactive) | 35.7 µM (inactive) | 72.4 µM (inactive) | 43.3 µM (inactive) | 13.7 µM (inactive) | 21.3 µM (inactive) | 29.1 µM (inactive) | 37.7 µM (inactive) | 51.4 µM (inactive) | –
Cc1cccc2c1CC1(Cc3c(C)cccc3C1=O)C2=O | > 100 µM (inactive) | > 100 µM (inactive) | > 100 µM (inactive) | > 100 µM (inactive) | > 100 µM (inactive) | > 100 µM (inactive) | > 100 µM (inactive) | – | > 100 µM (inactive) | > 100 µM (inactive) | > 100 µM (inactive) | > 100 µM (inactive) | > 100 µM (inactive) | > 100 µM (inactive) | > 100 µM (inactive) | > 100 µM (inactive) | > 100 µM (inactive) | > 100 µM (inactive) | > 100 µM (inactive) | > 100 µM (inactive)
C=CC(Br)(CBr)CCC1OC1(C)C (stereo not drawn) | 26.9 µM (inactive) | 20.3 µM (inactive) | 16.5 µM (inactive) | 15.7 µM (inactive) | 18.9 µM (inactive) | 16.3 µM (inactive) | 24.7 µM (inactive) | 16.6 µM (inactive) | 11.3 µM (inactive) | 15.1 µM (inactive) | 16.3 µM (inactive) | – | 19.5 µM (inactive) | 25.3 µM (inactive) | 16.7 µM (inactive) | 16.7 µM (inactive) | 14.4 µM (inactive) | 16.4 µM (inactive) | 21.7 µM (inactive) | 37.9 µM (inactive)
COc1cc2c3c(c1O)-c1c(ccc(OC)c1OC)CC3N(C)CC2 (stereo not drawn) | > 100 µM (inactive) | > 100 µM (inactive) | > 100 µM (inactive) | > 100 µM (inactive) | – | > 100 µM (inactive) | > 100 µM (inactive) | > 100 µM (inactive) | > 100 µM (inactive) | > 100 µM (inactive) | > 100 µM (inactive) | > 100 µM (inactive) | > 100 µM (inactive) | > 100 µM (inactive) | > 100 µM (inactive) | > 100 µM (inactive) | > 100 µM (inactive) | > 100 µM (inactive) | > 100 µM (inactive) | –
CCN(CCCl)c1cc(CN(C)C)cc(NC(=O)c2ccc(C(=O)Nc3cccc(N(CCCl)NN)c3)cc2)c1 | < 0.01 µM (active) | – | 0.0142 µM (active) | < 0.01 µM (active) | 0.0453 µM (active) | 0.0136 µM (active) | 0.116 µM (active) | 0.0332 µM (active) | 0.0301 µM (active) | 0.0521 µM (active) | 0.0242 µM (active) | 0.0246 µM (active) | – | 0.0234 µM (active) | < 0.01 µM (active) | 0.0129 µM (active) | 0.0789 µM (active) | 0.0428 µM (active) | 0.197 µM (active) | 0.014 µM (active)
OCC(O)COCn1cc(Cn2ncc3c(NCc4ccccc4)ncnc32)nn1 (stereo not drawn) | > 100 µM (inactive) | > 100 µM (inactive) | > 100 µM (inactive) | > 100 µM (inactive) | > 100 µM (inactive) | > 100 µM (inactive) | > 100 µM (inactive) | > 100 µM (inactive) | > 100 µM (inactive) | > 100 µM (inactive) | > 100 µM (inactive) | > 100 µM (inactive) | > 100 µM (inactive) | > 100 µM (inactive) | > 100 µM (inactive) | 17.7 µM (inactive) | > 100 µM (inactive) | > 100 µM (inactive) | > 100 µM (inactive) | –
N#C[BH2-][n+]1cn(C2CC(O)C(COP(=O)(O)OC3CC(n4c[n+]([BH2-]C#N)c5c(=O)[nH]c(N)nc54)OC3CO)O2)c2nc(N)[nH]c(=O)c21 (stereo not drawn) | > 100 µM (inactive) | > 100 µM (inactive) | > 100 µM (inactive) | > 100 µM (inactive) | > 100 µM (inactive) | > 100 µM (inactive) | – | > 100 µM (inactive) | > 100 µM (inactive) | > 100 µM (inactive) | > 100 µM (inactive) | > 100 µM (inactive) | > 100 µM (inactive) | > 100 µM (inactive) | > 100 µM (inactive) | > 100 µM (inactive) | > 100 µM (inactive) | > 100 µM (inactive) | > 100 µM (inactive) | 10 µM (inactive)
COc1ccc(/C=C2\CCCc3ccccc3C2=O)cc1 | 0.452 µM (active) | 0.39 µM (active) | 0.321 µM (active) | 0.0561 µM (active) | 0.187 µM (active) | 14.5 µM (inactive) | 0.119 µM (active) | 0.117 µM (active) | 0.0132 µM (active) | – | 0.122 µM (active) | 0.228 µM (active) | 0.0982 µM (active) | 0.185 µM (active) | 1.63 µM (inactive) | 0.249 µM (active) | 0.893 µM (active) | 0.026 µM (active) | 0.104 µM (active) | 0.33 µM (active)
CC1=NN(C(=O)c2ccccc2O)C(=O)/C1=C/c1cccc(O)c1 | 0.938 µM (active) | 2.77 µM (inactive) | 3.19 µM (inactive) | 0.826 µM (active) | 1.18 µM (inactive) | 2.27 µM (inactive) | 2.43 µM (inactive) | 45.9 µM (inactive) | 0.603 µM (active) | 0.968 µM (active) | 0.405 µM (active) | 0.571 µM (active) | 0.824 µM (active) | 0.536 µM (active) | – | 0.637 µM (active) | 0.462 µM (active) | 0.671 µM (active) | 0.0443 µM (active) | 0.178 µM (active)
CC(NC(=O)OC(C)(C)C)C(=O)NC(Cc1ccccc1)C(=O)NCC(=O)O (stereo not drawn) (Boc-Ala-Phe-Gly-OH; configuration not given here) | > 100 µM (inactive) | > 100 µM (inactive) | > 100 µM (inactive) | > 100 µM (inactive) | > 100 µM (inactive) | – | > 100 µM (inactive) | > 100 µM (inactive) | > 100 µM (inactive) | > 100 µM (inactive) | > 100 µM (inactive) | > 100 µM (inactive) | > 100 µM (inactive) | > 100 µM (inactive) | > 100 µM (inactive) | > 100 µM (inactive) | > 100 µM (inactive) | > 100 µM (inactive) | > 100 µM (inactive) | > 100 µM (inactive)
